# Earlier results in patent publication US6002023A, “2-debenzoyl-2-acyl taxol derivatives and method for making same” (Virginia Tech Intellectural Properties, Inc., priority 1997, dated 1999).
# Conditions: in some assays; cited from earlier work
smiles,measurement,value
CC(=O)O[C@@]12CO[C@@H]1C[C@H](O)[C@@]1(C)C(=O)[C@H](O)C3=C(C)[C@@H](OC(=O)[C@H](O)[C@@H](NC(=O)OC(C)(C)C)c4ccccc4)C[C@@](O)([C@@H](OC(=O)c4ccccc4)[C@H]21)C3(C)C [Taxotere],activity relative to taxol,approximately twice as active as taxol
